Source: patent publication US20260224588A1, “BENZODIAZEPINONE-DERIVED INHIBITORS OF EGFR AND HER2” (The Research Foundation for the State University of New York, priority 2023, published 2026)

Legend:
Test in all cases: KINOMEscan
Format in all cases: binding
Details in all cases: 1 μM of compound 4; read-out: POC
[1] = molecular target: T1, ABL1(F317I)-nonphosphorylated (Homo sapiens, UniProt P00519, F317I)
T1 construct: purchased Eurofins DiscoverX Corporation

[2] = molecular target: ACVR2B (Homo sapiens, UniProt Q13705)
[3] = molecular target: CAMK1D (Homo sapiens, UniProt Q8IU85)
[4] = molecular target: CAMK2B (Homo sapiens, UniProt Q13554)
[5] = molecular target: CDKL3 (Homo sapiens, UniProt Q8IVW4)
[6] = molecular target: CHEK1 (Homo sapiens, UniProt O14757)
[7] = molecular target: CSF1R-autoinhibited (Homo sapiens, UniProt P07333)
[8] = molecular target: CSNK1G2 (Homo sapiens, UniProt P78368)
[9] = molecular target: CSNK1G3 (Homo sapiens, UniProt Q9Y6M4)
[10] = molecular target: EGFR (Homo sapiens, UniProt P00533)
[11] = molecular target: T2, EGFR(E746-A750del) (Homo sapiens, UniProt P00533, DEL746-750)
T2 construct: purchased Eurofins DiscoverX (KINOMEscan service)

[12] = molecular target: T3, ERK2 (Homo sapiens, UniProt P28482)
T3 construct: purchased Eurofins DiscoverX Corporation

[13] = molecular target: T4, ERN1 (Homo sapiens, UniProt O75460)
T4 construct: purchased Eurofins DiscoverX Corporation

[14] = molecular target: T5, FLT3(K663Q) (Homo sapiens, UniProt P36888, K663Q)
T5 construct: purchased Eurofins DiscoverX Corporation

[15] = molecular target: T6, GSK3B (Homo sapiens, UniProt P49841)
T6 construct: purchased Eurofins DiscoverX Corporation

[16] = molecular target: IKK-epsilon (Homo sapiens, UniProt Q14164)
[17] = molecular target: INSR (Homo sapiens, UniProt P06213)
[18] = molecular target: LATS2 (Homo sapiens, UniProt Q9NRM7)
[19] = molecular target: LYN (Homo sapiens, UniProt P07948)
[20] = molecular target: MEK5 (Homo sapiens, UniProt Q13163)
[21] = molecular target: MERTK (Homo sapiens, UniProt Q12866)
[22] = molecular target: MET(M1250T) (Homo sapiens, UniProt P08581, M1250T)
[23] = molecular target: NEK3 (Homo sapiens, UniProt P51956)
[24] = molecular target: T7, PAK1 (Homo sapiens, UniProt Q13153)
T7 construct: purchased Eurofins DiscoverX Corporation (KINOMEscan)

[25] = molecular target: T8, PCTK1 (Homo sapiens, UniProt Q00536)
T8 construct: purchased Eurofins DiscoverX Corporation (KINOMEscan)

[26] = molecular target: T9, PDGFRB (Homo sapiens, UniProt P09619)
T9 construct: purchased Eurofins DiscoverX Corporation (KINOMEscan)

[27] = molecular target: PIK4CB (Homo sapiens, UniProt Q9UBF8)
[28] = molecular target: PIP5K2C (Homo sapiens, UniProt Q8TBX8)
[29] = molecular target: PKAC-beta (Homo sapiens, UniProt P22694)
[30] = molecular target: PRKCE (Homo sapiens, UniProt Q02156)
[31] = molecular target: PRKD2 (Homo sapiens, UniProt Q9BZL6)
[32] = molecular target: T10, RET(V804L) (Homo sapiens, UniProt P07949, V804L)
T10 construct: purchased Eurofins DiscoverX Corporation (KINOMEscan screening service)

[33] = molecular target: T11, RSK2(Kin.Dom.2-C-terminal) (Homo sapiens, UniProt P51812)
T11 construct: RSK2(Kin.Dom.2-C-terminal); purchased Eurofins DiscoverX Corporation (KINOMEscan screening service)

[34] = molecular target: T12, SRPK3 (Homo sapiens, UniProt Q9UPE1)
T12 construct: purchased Eurofins DiscoverX (KINOMEscan service)

[35] = molecular target: T13, TAOK3 (Homo sapiens, UniProt Q9H2K8)
T13 construct: purchased Eurofins DiscoverX Corporation

[36] = molecular target: T14, TRKC (Homo sapiens, UniProt Q16288)
T14 construct: purchased Eurofins DiscoverX Corporation

[37] = molecular target: T15, TSSK3 (Homo sapiens, UniProt Q96PN8)
T15 construct: purchased Eurofins DiscoverX Corporation

[38] = molecular target: T16, WEE1 (Homo sapiens, UniProt P30291)
T16 construct: purchased Eurofins DiscoverX

T15 sequence (Q96PN8 whole entry): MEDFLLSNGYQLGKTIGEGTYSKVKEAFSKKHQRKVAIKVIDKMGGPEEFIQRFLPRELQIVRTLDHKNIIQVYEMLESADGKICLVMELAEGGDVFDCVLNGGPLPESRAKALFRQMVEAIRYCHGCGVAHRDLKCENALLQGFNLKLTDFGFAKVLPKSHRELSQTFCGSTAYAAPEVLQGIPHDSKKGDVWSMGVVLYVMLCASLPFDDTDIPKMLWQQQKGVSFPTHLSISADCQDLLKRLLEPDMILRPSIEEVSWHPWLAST
LYN, sequence (P07948 whole entry): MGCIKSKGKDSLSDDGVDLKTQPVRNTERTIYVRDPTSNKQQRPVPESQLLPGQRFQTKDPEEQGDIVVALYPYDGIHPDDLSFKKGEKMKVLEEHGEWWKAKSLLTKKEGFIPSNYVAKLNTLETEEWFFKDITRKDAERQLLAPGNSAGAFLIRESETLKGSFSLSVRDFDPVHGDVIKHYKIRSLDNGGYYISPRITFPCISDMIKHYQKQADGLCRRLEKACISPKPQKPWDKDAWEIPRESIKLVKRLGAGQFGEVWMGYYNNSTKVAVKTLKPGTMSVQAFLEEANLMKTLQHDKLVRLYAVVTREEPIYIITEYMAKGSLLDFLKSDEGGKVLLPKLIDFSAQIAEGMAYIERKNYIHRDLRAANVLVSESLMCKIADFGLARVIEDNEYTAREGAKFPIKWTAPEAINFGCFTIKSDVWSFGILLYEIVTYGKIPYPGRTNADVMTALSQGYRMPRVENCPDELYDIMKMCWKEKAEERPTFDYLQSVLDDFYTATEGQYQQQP
NEK3, sequence (P51956 whole entry): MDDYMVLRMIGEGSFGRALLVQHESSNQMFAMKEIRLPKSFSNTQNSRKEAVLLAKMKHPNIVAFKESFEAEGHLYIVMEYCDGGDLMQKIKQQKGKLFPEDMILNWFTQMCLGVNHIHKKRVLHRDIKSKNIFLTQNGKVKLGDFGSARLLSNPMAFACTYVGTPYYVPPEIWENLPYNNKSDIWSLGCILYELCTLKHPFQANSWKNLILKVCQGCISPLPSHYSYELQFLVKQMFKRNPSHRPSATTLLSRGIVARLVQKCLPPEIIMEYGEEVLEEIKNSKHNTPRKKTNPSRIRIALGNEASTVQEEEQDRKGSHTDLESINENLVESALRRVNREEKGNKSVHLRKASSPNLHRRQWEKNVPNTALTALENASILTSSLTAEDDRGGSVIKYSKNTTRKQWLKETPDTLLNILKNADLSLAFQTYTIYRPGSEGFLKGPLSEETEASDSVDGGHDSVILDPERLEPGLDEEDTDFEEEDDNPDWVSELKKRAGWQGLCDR
CSNK1G2, sequence (P78368 whole entry): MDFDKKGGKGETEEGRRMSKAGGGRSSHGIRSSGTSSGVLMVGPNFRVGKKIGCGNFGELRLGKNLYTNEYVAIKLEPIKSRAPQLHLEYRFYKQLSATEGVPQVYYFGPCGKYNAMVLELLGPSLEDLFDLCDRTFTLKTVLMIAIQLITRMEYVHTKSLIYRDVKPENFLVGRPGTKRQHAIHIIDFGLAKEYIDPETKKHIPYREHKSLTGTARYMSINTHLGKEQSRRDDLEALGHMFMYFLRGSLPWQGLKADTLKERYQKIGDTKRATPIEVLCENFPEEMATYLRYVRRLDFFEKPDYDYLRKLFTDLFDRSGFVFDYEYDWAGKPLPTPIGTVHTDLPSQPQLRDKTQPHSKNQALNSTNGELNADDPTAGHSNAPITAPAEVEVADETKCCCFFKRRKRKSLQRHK
T14 sequence (Q16288 32-839): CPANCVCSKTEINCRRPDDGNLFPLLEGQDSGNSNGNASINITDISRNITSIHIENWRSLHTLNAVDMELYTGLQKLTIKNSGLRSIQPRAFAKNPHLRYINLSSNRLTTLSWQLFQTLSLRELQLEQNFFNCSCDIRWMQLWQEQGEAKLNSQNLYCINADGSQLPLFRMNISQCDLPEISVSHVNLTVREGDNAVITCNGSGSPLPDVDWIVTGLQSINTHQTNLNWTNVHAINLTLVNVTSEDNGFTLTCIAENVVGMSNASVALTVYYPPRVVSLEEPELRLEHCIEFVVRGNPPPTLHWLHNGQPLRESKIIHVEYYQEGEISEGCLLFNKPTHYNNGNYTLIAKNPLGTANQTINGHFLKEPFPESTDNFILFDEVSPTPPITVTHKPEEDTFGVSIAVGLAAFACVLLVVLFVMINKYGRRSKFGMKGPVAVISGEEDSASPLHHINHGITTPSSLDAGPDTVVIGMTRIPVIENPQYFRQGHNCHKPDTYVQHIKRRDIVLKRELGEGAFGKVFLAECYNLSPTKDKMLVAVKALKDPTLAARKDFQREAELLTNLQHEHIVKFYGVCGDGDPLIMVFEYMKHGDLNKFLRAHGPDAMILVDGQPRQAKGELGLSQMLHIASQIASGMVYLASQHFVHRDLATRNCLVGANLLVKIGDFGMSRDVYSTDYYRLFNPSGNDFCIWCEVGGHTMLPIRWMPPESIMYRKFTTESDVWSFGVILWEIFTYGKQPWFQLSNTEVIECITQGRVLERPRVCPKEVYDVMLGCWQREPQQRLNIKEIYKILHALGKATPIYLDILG
MERTK, sequence (Q12866 21-999): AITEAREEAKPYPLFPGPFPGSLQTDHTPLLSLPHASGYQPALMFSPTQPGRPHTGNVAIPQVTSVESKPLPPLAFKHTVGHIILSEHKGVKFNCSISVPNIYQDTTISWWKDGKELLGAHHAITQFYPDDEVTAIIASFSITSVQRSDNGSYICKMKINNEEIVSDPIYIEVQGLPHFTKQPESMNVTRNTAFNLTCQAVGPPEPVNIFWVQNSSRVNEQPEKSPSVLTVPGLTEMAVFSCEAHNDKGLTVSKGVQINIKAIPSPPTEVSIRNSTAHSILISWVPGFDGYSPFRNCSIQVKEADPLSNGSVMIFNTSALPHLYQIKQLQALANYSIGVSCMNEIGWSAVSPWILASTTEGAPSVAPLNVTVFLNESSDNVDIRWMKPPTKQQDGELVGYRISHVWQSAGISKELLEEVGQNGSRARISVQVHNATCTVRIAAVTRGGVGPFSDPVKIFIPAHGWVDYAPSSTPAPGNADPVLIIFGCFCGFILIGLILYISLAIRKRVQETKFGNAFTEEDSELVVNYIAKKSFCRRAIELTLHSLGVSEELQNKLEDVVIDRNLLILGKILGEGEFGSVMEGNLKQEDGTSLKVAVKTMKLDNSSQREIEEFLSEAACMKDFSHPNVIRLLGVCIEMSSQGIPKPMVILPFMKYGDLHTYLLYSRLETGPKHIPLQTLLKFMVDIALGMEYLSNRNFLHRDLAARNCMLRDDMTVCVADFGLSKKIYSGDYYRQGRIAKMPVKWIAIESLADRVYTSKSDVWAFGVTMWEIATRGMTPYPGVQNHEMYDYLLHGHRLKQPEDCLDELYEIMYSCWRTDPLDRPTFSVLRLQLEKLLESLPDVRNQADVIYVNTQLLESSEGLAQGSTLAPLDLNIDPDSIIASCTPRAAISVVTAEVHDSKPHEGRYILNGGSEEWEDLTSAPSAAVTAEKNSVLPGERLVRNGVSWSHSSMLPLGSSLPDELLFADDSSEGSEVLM
PIK4CB, sequence (Q9UBF8 whole entry): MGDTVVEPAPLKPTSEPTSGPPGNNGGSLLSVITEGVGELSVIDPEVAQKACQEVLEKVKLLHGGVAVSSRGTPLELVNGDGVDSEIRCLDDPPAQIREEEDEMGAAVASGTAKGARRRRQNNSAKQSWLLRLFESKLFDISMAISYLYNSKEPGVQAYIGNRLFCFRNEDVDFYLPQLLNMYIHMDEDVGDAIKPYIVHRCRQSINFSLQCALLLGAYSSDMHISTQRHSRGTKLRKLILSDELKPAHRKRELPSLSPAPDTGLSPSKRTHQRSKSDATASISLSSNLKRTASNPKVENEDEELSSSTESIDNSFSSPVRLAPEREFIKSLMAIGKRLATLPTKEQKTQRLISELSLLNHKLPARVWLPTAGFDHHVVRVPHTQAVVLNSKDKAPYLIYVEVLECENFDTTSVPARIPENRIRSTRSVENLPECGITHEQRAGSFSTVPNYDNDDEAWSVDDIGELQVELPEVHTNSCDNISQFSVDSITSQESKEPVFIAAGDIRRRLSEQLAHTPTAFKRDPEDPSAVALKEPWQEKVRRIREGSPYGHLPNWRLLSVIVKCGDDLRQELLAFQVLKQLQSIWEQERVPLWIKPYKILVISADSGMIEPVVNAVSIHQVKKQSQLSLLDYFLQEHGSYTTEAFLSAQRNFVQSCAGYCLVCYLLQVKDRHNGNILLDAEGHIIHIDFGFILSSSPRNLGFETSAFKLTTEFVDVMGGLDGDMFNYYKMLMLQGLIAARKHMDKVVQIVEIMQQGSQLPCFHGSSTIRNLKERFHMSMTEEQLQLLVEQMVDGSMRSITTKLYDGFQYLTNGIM
T7 sequence (Q13153 whole entry): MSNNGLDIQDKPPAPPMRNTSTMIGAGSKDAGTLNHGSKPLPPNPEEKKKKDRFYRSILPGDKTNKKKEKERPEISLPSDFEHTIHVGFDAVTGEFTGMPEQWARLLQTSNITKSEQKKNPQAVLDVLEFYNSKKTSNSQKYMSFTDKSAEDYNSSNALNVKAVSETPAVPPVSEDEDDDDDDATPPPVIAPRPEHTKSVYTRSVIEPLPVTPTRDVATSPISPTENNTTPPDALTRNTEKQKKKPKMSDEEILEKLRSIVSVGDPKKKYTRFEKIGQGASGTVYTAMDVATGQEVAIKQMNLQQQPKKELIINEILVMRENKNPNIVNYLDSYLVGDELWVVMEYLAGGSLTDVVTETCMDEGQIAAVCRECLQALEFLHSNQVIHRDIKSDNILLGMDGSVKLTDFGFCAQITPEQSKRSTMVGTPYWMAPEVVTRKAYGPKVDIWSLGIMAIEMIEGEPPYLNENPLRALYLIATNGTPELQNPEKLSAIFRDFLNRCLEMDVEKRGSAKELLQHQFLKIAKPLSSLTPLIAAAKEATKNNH

Structure (SMILES): C=CC(=O)Nc1ccc(OC)c(Nc2cc(-c3[nH]c(CC)nc3-c3cccc(NC(=O)c4cccc5c4NC(=O)c4ccccc4N5)c3)ccn2)c1 [Compound 4, N-(3-(5-(2-((5-Acrylamido-2-methoxyphenyl)amino)pyridin-4-yl)-2-ethyl-1H-imidazol-4-yl)phenyl)-11-oxo-10,11-dihydro-5H-dibenzo[b,e][1,4]diazepine-9-carboxamide]
- remaining binding at 1 µM [1]: 40%
- remaining binding at 1 µM [2]: 72%
- remaining binding at 1 µM [3]: 100%
- remaining binding at 1 µM [4]: 72%
- remaining binding at 1 µM [5]: 100%
- remaining binding at 1 µM [6]: 100%
- remaining binding at 1 µM [7]: 69%
- remaining binding at 1 µM [8]: 91%
- remaining binding at 1 µM [9]: 98%
- remaining binding at 1 µM [10]: 17%
- remaining binding at 1 µM [11]: 13%
- remaining binding at 1 µM [12]: 100%
- remaining binding at 1 µM [13]: 74%
- remaining binding at 1 µM [14]: 87%
- remaining binding at 1 µM [15]: 100%
- remaining binding at 1 µM [16]: 100%
- remaining binding at 1 µM [17]: 97%
- remaining binding at 1 µM [18]: 62%
- remaining binding at 1 µM [19]: 22%
- remaining binding at 1 µM [20]: 41%
- remaining binding at 1 µM [21]: 83%
- remaining binding at 1 µM [22]: 89%
- remaining binding at 1 µM [23]: 100%
- remaining binding at 1 µM [24]: 100%
- remaining binding at 1 µM [25]: 100%
- remaining binding at 1 µM [26]: 100%
- remaining binding at 1 µM [27]: 93%
- remaining binding at 1 µM [28]: 66%
- remaining binding at 1 µM [29]: 98%
- remaining binding at 1 µM [30]: 100%
- remaining binding at 1 µM [31]: 62%
- remaining binding at 1 µM [32]: 99%
- remaining binding at 1 µM [33]: 100%
- remaining binding at 1 µM [34]: 100%
- remaining binding at 1 µM [35]: 95%
- remaining binding at 1 µM [36]: 87%
- remaining binding at 1 µM [37]: 100%
- remaining binding at 1 µM [38]: 85%
